Data from US12649723B2, “Carbonohydrazonoyl dicyanide compounds comprising 2 or more aryl or heteroaryl connected via linker and use thereof” (KOREA INSTITUTE OF SCIENCE AND TECHNOLOGY, priority 2020, dated 2026).

Columns and labels:
[1] = target: T1, tau protein (Homo sapiens, UniProt P10636); assay: Tau-BiFC cell model: inhibition of tau protein aggregation; assay type: cell-based; conditions: for remaining activity at 10 µM / remaining activity at 3 µM: 48 h, Forskolin-only group = 100% tau protein-aggregated state; for remaining activity at 10 µM: compound 10 μM, BiFC fluorescence, read-out: Response (% @10 μM); for IC50: Tau BiFC in cells, with Forskolin 30 μM, 48 hours; for remaining activity at 3 µM: compounds marked *: measured at 3 μM, read-out: Response
T1 construct: fused on or other part: Split fluorescent-protein halves for BiFC are fused to tau; In the published tau-BiFC line these are Venus VN173 and VC155
Procedure, shortened: (§1)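 Tau-BiFC cells were exposed for 48 h to compound (1, 3, 10 μM for screening; 0.03–30 μM for dose-response) plus 30 μM Forskolin to induce aggregation. BiFC fluorescence was normalised to Forskolin-only minus untreated controls, with IC50 from nonlinear regression. Viability was Hoechst-stained nuclei counts relative to Forskolin-only wells.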

[2] = test system: Tau-BiFC cells; assay: Cell viability (cytotoxicity) in tau-BiFC cells, count of stained nuclei; assay type: cell-based; conditions: Forskolin-only group = 100% cell viability; for Cell viability (% @10 μM): compound 10 μM; for Cell viability: compounds marked *: measured at 3 μM
Procedure, shortened: as §1

[3] = target: T2, CYP1A2 (Homo sapiens, UniProt P05177); assay: Inhibitory effect on CYP coenzyme activity, human liver microsomes; assay type: in vitro ADME; conditions: compound 10 μM; human liver microsomes 0.25 mg/mL; substrate phenacetin; 15 minutes
T2 construct: human liver microsomes (0.25 mg/mL); from tissue; host or cells: human liver microsomes
T2 sequence (P05177 1-516): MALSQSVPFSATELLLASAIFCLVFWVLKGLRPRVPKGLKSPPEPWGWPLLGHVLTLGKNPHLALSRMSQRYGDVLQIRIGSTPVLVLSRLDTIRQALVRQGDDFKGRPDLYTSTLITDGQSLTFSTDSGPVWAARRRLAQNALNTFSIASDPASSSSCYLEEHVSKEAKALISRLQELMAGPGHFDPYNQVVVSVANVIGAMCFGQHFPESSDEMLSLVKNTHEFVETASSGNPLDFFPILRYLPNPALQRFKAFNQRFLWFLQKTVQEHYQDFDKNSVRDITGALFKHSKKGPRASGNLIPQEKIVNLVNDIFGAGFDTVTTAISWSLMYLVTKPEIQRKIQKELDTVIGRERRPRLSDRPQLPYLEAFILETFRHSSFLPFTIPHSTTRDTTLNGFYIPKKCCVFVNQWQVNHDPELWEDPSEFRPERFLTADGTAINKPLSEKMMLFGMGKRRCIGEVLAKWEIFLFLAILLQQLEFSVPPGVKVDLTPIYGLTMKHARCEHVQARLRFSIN
Experimental: (§2) The inhibitory effects of the compounds prepared according to Examples 1 to 175 on CYP coenzyme activity were identified. Specifically, human liver microsomes (0.25 mg/mL), a 0.1 M phosphate buffer solution (pH 7.4), a substrate drug cocktail of five types of drug metabolism enzymes (50 μM phenacetin, 10 μM diclofenac, 100 μM S-mephenytoin, 5 μM dextromethorphan, and 2.5 μM midazolam), and the compound at a concentration of 0 μM or 10 μM were mixed and pre-cultured at 37° C. for 5 minutes, and then further cultured at 37° C. for 15 minutes together with an NADPH generation system solution added thereto. Thereafter, the reaction was terminated by adding an acetonitrile solution containing an internal standard material (terfenadine) and centrifuged for 5 minutes (14,000 rpm, 4° C.), and then a supernatant was injected into an LC-MS/MS system for simultaneous analysis of metabolites of the substrate drugs to thereby evaluate the inhibitory effects on drug metabolism.
(§3) Metabolites of each CYP coenzyme indicator drug generated through the reaction were analyzed using the Shimadzu Nexera XR system and TSQ Vantage (Thermo). In an HPLC column, Kinetex C18 (2.1 mm×100 mm, 2.6 μm, particle size; Phenomenex, USA) was used, and mobile phases were (A) distilled water containing 0.1% formic acid and (B) acetonitrile containing 0.1% formic acid, and a gradient program shown in Table 3 was applied thereto.
(§4) The generated metabolites were quantified using a multiple reaction monitoring (MRM) quantification mode, and Xcalibur (version 1.6.1) was used for data analysis. Inhibitory effects of the novel compound prepared according to the examples of the present invention on CYP coenzyme activity are shown in Table 4 below.

[4] = target: T3, CYP2C19 (Homo sapiens, UniProt P33261); assay: as above; assay type: in vitro ADME; conditions: compound 10 μM; human liver microsomes 0.25 mg/mL; substrate S-mephenytoin; 15 minutes
T3 construct: human liver microsomes (0.25 mg/mL); from tissue; host or cells: human liver microsomes
Experimental: as §2, §3, §4

[5] = target: T4, CYP2C9 (Homo sapiens, UniProt P11712); assay: as above; assay type: in vitro ADME; conditions: compound 10 μM; human liver microsomes 0.25 mg/mL; substrate diclofenac; 15 minutes
T4 construct: human liver microsomes (0.25 mg/mL); from tissue; host or cells: human liver microsomes
Experimental: as §2, §3, §4

[6] = target: T5, CYP2D6 (Homo sapiens, UniProt P10635); assay: as above; assay type: in vitro ADME; conditions: compound 10 μM; human liver microsomes 0.25 mg/mL; substrate dextromethorphan; 15 minutes
T5 construct: human liver microsomes (0.25 mg/mL); from tissue; host or cells: human liver microsomes
Experimental: as §2, §3, §4

[7] = target: T6, CYP3A4 (Homo sapiens, UniProt P08684); assay: as above; assay type: in vitro ADME; conditions: compound 10 μM; human liver microsomes 0.25 mg/mL; substrate midazolam; 15 minutes
T6 construct: human liver microsomes (0.25 mg/mL); from tissue; host or cells: human liver microsomes
Experimental: as §2, §3, §4

[8] = Liver microsome stability; assay type: in vitro ADME, human; conditions: amount of substrate remaining; compound 1 μM, 30 minutes, 37° C., NADPH
Procedure, shortened: (§5)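 Human, dog, rat and mouse liver microsomes (0.25 mg/mL) with 1 μM compound in 0.1 M phosphate buffer pH 7.4, preincubated 5 min at 37° C, then incubated 30 min at 37° C with NADPH-generating system. Reaction stopped with acetonitrile containing internal standard; remaining parent quantified by LC-MS/MS.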

[9] = Liver microsome stability; assay type: in vitro ADME, dog; conditions: amount of substrate remaining; compound 1 μM, 30 minutes, 37° C., NADPH
Experimental: The stability of liver microsomes due to the compounds prepared according to Examples 1 to 175 was confirmed. Specifically, four types of liver microsomes (human, dog, rat, and mouse, each 0.25 mg/mL), a 0.1 M phosphate buffer solution (pH 7.4), and each of the compounds at a concentration of 1 μM were mixed and pre-cultured at 37° C. for 5 minutes and further cultured at 37° C. for 30 minutes together with an NADPH generation system solution added thereto. Thereafter, the reaction was terminated by adding an acetonitrile solution containing an internal standard material (chloropropamide) and centrifuged for 5 minutes (14,000 rpm, 4° C.), and then a supernatant was injected into an LC-MS/MS system for analysis of substrate drugs to thereby evaluate metabolic stability due to 8 types of compounds.
The amount of the substrate remaining after the reaction was analyzed using the Shimadzu Nexera XR system and TSQ Vantage (Thermo). In an HPLC column, Kinetex XB-C18 (2.1 mm×100 mm, particle size of 2.6 μm; Phenomenex, USA) was used, and mobile phases were (A) distilled water containing 0.1% formic acid and (B) acetonitrile containing 0.1% formic acid. Analyst software (version 1.6.3) and Xcalibur (version 1.6.1) were used for data analysis.

[10] = Liver microsome stability; assay type: in vitro ADME, rat; conditions: amount of substrate remaining; compound 1 μM, 30 minutes, 37° C., NADPH
Procedure, shortened: as §5

[11] = Liver microsome stability; assay type: in vitro ADME, mouse; conditions: amount of substrate remaining; compound 1 μM, 30 minutes, 37° C., NADPH
Procedure, shortened: as §5

T4 sequence (P11712 whole entry): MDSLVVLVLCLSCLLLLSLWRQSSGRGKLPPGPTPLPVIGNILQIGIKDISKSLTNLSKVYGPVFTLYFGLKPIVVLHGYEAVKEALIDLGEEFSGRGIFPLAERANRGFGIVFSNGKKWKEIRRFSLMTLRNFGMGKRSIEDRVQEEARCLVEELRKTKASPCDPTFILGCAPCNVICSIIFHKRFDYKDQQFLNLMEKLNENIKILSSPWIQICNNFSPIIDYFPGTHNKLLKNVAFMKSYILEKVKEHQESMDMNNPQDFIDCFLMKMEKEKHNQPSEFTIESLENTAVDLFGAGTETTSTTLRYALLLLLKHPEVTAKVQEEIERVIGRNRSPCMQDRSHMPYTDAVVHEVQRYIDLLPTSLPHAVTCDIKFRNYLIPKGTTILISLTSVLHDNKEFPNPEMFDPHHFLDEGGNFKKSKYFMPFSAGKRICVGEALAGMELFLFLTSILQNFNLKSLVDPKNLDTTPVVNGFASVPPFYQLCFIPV
T1 sequence (P10636 2-441 isoform P10636-8 limits assumed): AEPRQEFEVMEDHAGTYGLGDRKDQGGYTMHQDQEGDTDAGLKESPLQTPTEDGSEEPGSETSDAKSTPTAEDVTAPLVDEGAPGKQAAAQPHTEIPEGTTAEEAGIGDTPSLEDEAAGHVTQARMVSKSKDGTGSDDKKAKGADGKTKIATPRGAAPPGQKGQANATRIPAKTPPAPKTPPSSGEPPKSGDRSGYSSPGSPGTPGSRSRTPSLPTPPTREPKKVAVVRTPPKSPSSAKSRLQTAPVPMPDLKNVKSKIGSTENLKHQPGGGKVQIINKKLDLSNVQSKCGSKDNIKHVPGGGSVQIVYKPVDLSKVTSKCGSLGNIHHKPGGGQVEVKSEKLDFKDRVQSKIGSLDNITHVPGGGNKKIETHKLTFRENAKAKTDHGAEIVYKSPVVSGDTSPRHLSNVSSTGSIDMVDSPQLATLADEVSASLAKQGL
T5 sequence (P10635 whole entry): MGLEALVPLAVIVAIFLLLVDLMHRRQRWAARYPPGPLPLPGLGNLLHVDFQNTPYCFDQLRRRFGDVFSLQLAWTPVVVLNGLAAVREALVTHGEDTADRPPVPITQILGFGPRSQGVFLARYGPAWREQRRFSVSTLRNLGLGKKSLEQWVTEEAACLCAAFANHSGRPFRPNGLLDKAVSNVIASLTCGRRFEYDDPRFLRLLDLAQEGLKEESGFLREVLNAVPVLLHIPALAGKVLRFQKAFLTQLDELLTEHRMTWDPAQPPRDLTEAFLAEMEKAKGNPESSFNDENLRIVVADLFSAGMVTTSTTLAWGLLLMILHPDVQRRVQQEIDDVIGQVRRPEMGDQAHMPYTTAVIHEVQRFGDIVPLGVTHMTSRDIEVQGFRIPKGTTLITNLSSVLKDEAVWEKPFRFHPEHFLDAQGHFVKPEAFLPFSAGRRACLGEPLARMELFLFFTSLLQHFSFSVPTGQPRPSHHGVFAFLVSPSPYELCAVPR
T3 sequence (P33261 whole entry): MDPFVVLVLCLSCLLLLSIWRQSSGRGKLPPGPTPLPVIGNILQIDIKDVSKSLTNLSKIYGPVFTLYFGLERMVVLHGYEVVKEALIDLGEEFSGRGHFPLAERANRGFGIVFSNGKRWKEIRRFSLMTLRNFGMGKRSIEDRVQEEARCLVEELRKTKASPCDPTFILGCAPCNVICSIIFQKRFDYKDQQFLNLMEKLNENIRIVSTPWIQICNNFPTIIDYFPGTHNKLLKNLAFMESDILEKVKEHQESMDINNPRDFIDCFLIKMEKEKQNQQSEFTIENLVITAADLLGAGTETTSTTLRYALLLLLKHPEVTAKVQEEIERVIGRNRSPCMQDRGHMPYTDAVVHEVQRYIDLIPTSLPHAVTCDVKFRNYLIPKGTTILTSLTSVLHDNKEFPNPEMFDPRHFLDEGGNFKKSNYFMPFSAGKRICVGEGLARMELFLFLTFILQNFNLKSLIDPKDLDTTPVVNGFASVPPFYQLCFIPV
T6 sequence (P08684 whole entry): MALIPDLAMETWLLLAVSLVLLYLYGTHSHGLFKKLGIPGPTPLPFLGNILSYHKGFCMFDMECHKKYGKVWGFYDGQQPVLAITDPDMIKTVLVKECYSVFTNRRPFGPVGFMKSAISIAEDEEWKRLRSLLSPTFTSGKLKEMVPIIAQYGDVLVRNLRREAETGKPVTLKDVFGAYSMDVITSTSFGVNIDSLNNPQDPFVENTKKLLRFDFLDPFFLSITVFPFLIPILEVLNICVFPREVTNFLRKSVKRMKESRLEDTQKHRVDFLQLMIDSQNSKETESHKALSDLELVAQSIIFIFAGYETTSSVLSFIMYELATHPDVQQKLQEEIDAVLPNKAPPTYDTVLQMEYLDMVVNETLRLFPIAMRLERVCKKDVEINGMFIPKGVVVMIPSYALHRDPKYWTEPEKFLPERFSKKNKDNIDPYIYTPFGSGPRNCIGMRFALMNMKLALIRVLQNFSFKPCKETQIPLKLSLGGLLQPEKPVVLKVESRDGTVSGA

Cc1cnc(C(=O)Nc2ccc(NN=C(C#N)C#N)c(F)c2)cn1 [Compound 3, (2-fluoro-4-(5-methylpyrazine-2-carboxamido)phenyl)carbonohydrazonoyl dicyanide]
remaining activity at 10 µM [1]: 0%
IC50 [1]: 0.03 µM
Cell viability (% @10 μM) [2]: 62.1%
CYP1A2 [3]: 85.6
CYP2C19 [4]: 78.2
CYP2C9 [5]: 61.9
CYP2D6 [6]: 83.6
CYP3A4 [7]: 80.8
Human (%) [8]: 95.7%
Dog (%) [9]: 75.4%
Rat (%) [10]: 72.6%
Mouse (%) [11]: 46.1%

N#CC(C#N)=NNc1ccc(NC(=O)c2ccc(C(F)(F)F)cc2)nc1 [Compound 27, (6-(4-(trifluoromethyl)benzamido)pyridin-3-yl)carbonohydrazonoyl dicyanide]
remaining activity at 10 µM [1]: 0%
IC50 [1]: 0.37 µM
Cell viability (% @10 μM) [2]: 122%
CYP1A2 [3]: 76.8
CYP2C19 [4]: 78.3
CYP2C9 [5]: 23.7
CYP2D6 [6]: 76
CYP3A4 [7]: >100
Human (%) [8]: 86.9%
Dog (%) [9]: 3.6%
Rat (%) [10]: 8.8%
Mouse (%) [11]: 5.4%

N#CC(C#N)=NNc1ccc(Oc2cccc(F)c2)nc1 [Compound 69, (6-(3-fluorophenoxy)pyridin-3-yl)carbonohydrazonoyl dicyanide]
remaining activity at 10 µM [1]: 0%
IC50 [1]: 0.26 µM
Cell viability (% @10 μM) [2]: 119.4%
Human (%) [8]: 8.4%
Dog (%) [9]: 94.8%
Rat (%) [10]: 75.6%
Mouse (%) [11]: 81.6%

N#CC(C#N)=NNc1ccc(NC(=O)c2cccc(C(F)(F)F)c2)nc1 [Compound 26, (6-(3-(trifluoromethyl)benzamido)pyridin-3-yl)carbonohydrazonoyl dicyanide]
remaining activity at 10 µM [1]: 0%
IC50 [1]: 0.71 µM
Cell viability (% @10 μM) [2]: 109.8%
Human (%) [8]: 72.5%
Dog (%) [9]: 29.8%
Rat (%) [10]: 19.8%
Mouse (%) [11]: 7.1%

Cc1cc(NN=C(C#N)C#N)ccc1OCc1cscn1 [Compound 152, (3-methyl-4-(thiazol-4-ylmethoxy)phenyl)carbonohydrazonoyl dicyanide]
remaining activity at 3 µM [1]: -37%
IC50 [1]: 0.054 µM
Cell viability [2]: 117%
CYP1A2 [3]: 75.5
CYP2C19 [4]: 95
CYP2C9 [5]: 17.2
CYP2D6 [6]: 96.1
CYP3A4 [7]: >100
Human (%) [8]: 73.2%
Rat (%) [10]: 72.3%
Mouse (%) [11]: 56.6%

N#CC(C#N)=NNc1ccc(NC(=O)c2ccoc2)nc1 [Compound 110, (6-(furan-3-carboxamido)pyridin-3-yl)carbonohydrazonoyl dicyanide]
remaining activity at 10 µM [1]: 0%
IC50 [1]: 0.79 µM
Cell viability (% @10 μM) [2]: 160.5%
CYP1A2 [3]: 88.3
CYP2C19 [4]: 88.4
CYP2C9 [5]: 77.1
CYP2D6 [6]: 91.3
CYP3A4 [7]: 98.9
Human (%) [8]: 89.7%
Rat (%) [10]: 81.8%
Mouse (%) [11]: 92.4%

Cc1cc(NN=C(C#N)C#N)ccc1OCc1nc2ccccc2[nH]1 [Compound 146, (4-((1H-benzo[d]imidazol-2-yl)methoxy)-3-methylphenyl)carbonohydrazonoyl dicyanide]
remaining activity at 3 µM [1]: -35%
IC50 [1]: 0.444 µM
Cell viability [2]: 133%
CYP1A2 [3]: >100
CYP2C19 [4]: 88.4
CYP2C9 [5]: 47.2
CYP2D6 [6]: >100
CYP3A4 [7]: 82.7
Human (%) [8]: 64.6%
Rat (%) [10]: 31.1%
Mouse (%) [11]: 70.5%

N#CC(C#N)=NNc1ccc(Oc2ccccc2)nc1 [Compound 68, (6-phenoxypyridin-3-yl)carbonohydrazonoyl dicyanide]
remaining activity at 10 µM [1]: 0%
IC50 [1]: 0.11 µM
Cell viability (% @10 μM) [2]: 117%
Human (%) [8]: 6.7%
Dog (%) [9]: 87.8%
Rat (%) [10]: 63%
Mouse (%) [11]: 93.6%

Cc1cc(NN=C(C#N)C#N)ccc1OCc1cccnc1 [Compound 145, (3-methyl-4-(pyridin-3-ylmethoxy)phenyl)carbonohydrazonoyl dicyanide]
remaining activity at 3 µM [1]: -49%
IC50 [1]: 0.126 µM
Cell viability [2]: 95%
CYP1A2 [3]: 5.3
CYP2C19 [4]: 46.5
CYP2C9 [5]: 2.2
CYP2D6 [6]: 39.1
CYP3A4 [7]: 22
Human (%) [8]: 93.7%
Rat (%) [10]: 91.2%
Mouse (%) [11]: 93.3%
